“Also recorded” adds a separate entry of the source. Where two headings read alike, the source gives them in different places.
Legend:
[1] = Phase I open-label single ascending dose study; type: in vivo, healthy male and female participants; conditions: single oral doses 10-200 mg
Method: This was an open-label, single ascending doses (SAD) study in healthy male and female participants 50 to 80 years of age (inclusive) with no history of cognitive impairment to evaluate the safety of single oral doses of Compound 1.
Six cohorts of 6 participants each received a single oral dose of Compound 1 in the fasted state at the following dose levels: 10, 40, 70, 100, 150, and 200 mg and then were followed for 7 days; the starting dose of 10 mg was <10% of the 140 mg human equivalent dose (HED) of the rat NOAEL in the GLP 28-day rat study of 15 mg/kg.
Doses were administered in an inpatient setting where all participants were closely monitored prior to discharge on Day 3, with follow-up in-person visits occurring on Days 4 and 7 and a phone call to inquire about general health occurring on Day 5.
Compound 1 administration was carefully monitored within and between cohorts to ensure patient safety and determination of whether to open the next dose cohort was made after all participants in a given cohort had completed the study and all available clinical and safety data were reviewed by the Investigator, Medical Monitor, DSMB, and IND Sponsor.
Following study drug administration, vital signs were monitored every 1 hour for the first 8 hours and then every 3 hours until discharge on Day 3 and an ECG was performed at approximately 6, 24, and 48 hours after drug administration. In order to monitor for changes in consciousness, the Glasgow Coma Scale (GCS) was administered pre-dose and then every 2 hours for the first 8 hours and then every 3 hours until discharge on Day 3. In order to monitor for cognitive or psychiatric side effects, the MOCA, GDS, and NPIQ were administered prior to oral dose administration, again at approximately 6 hours post-dose (approximate peak concentration), and approximately 24 hours post-dose. Adverse events were monitored continuously. Blood was collected for safety laboratory studies prior to drug dose administration and on Days 2 and 3.

[2] = Intravenous and oral cross-over pharmacokinetic study; type: in vivo, male Sprague Dawley rats; conditions: male rats, IV 1 mg/kg
Method: This study assessed the PK of Compound 1 AH Form A in male Sprague Dawley rats (3/group) following single IV (intravenous) administration at 1 mg/kg as a solution in 2.5% N-Methyl-2-pyrrolidone (NMP)+1% Solutol HS15 in water or a PO (oral) administration of 3 formulations at 5 and 50 mg/kg, administered to the same animals in a cross over with 7 days recovery.
Serial plasma samples were collected at intervals to 24 h post dose and the level of Compound 1 determined in each plasma sample by LC-MS/MS.

[3] = biological target: aryl hydrocarbon receptor (AhR) (Homo sapiens, UniProt P35869); test: AhR receptor activation, human; type: in vitro ADME; conditions: at 30 μM
aryl hydrocarbon receptor (AhR), sequence (P35869 11-848): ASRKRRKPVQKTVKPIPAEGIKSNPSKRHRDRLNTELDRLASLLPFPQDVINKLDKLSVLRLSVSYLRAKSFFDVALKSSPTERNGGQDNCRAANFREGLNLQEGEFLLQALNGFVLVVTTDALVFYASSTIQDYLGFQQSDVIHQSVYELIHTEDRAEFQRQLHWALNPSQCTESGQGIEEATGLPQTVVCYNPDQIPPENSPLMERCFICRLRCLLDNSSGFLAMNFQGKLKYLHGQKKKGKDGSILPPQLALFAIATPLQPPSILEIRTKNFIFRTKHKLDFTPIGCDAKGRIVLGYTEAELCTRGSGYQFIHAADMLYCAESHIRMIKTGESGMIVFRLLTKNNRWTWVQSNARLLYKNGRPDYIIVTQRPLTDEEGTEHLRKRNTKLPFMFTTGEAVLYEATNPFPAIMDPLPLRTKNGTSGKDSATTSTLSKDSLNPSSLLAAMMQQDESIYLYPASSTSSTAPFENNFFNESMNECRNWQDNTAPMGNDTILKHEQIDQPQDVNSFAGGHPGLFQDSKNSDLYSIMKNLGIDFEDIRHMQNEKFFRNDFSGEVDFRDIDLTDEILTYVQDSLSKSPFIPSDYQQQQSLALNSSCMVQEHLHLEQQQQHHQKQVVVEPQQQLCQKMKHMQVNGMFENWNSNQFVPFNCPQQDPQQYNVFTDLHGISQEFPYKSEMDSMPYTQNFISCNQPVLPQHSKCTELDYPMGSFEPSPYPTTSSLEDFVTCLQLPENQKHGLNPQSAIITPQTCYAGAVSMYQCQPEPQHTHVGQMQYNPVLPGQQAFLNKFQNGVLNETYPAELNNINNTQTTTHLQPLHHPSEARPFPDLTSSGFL
Description: (§1) The objective of this study was to determine the human and rat pregnane X receptor (PXR) and human and rat aryl hydrocarbon receptor (AhR) receptor activation potential of Compound 1 Form A. The activation of PXR is a marker for induction of CYP3A4/5 and […] and the activation of AhR is a marker for induction of CYP1A.

mGluR5 = biological target: T1, mGluR5 (Mus musculus, UniProt Q3UVX5); test: [18F]FPEB PET displacement, receptor occupancy; type: in vivo, mice; conditions: for receptor occupancy at 3.75 mg/kg: mouse
T1 construct: from tissue; host or cells: brain of living mice
T1 sequence (Q3UVX5 19-1203): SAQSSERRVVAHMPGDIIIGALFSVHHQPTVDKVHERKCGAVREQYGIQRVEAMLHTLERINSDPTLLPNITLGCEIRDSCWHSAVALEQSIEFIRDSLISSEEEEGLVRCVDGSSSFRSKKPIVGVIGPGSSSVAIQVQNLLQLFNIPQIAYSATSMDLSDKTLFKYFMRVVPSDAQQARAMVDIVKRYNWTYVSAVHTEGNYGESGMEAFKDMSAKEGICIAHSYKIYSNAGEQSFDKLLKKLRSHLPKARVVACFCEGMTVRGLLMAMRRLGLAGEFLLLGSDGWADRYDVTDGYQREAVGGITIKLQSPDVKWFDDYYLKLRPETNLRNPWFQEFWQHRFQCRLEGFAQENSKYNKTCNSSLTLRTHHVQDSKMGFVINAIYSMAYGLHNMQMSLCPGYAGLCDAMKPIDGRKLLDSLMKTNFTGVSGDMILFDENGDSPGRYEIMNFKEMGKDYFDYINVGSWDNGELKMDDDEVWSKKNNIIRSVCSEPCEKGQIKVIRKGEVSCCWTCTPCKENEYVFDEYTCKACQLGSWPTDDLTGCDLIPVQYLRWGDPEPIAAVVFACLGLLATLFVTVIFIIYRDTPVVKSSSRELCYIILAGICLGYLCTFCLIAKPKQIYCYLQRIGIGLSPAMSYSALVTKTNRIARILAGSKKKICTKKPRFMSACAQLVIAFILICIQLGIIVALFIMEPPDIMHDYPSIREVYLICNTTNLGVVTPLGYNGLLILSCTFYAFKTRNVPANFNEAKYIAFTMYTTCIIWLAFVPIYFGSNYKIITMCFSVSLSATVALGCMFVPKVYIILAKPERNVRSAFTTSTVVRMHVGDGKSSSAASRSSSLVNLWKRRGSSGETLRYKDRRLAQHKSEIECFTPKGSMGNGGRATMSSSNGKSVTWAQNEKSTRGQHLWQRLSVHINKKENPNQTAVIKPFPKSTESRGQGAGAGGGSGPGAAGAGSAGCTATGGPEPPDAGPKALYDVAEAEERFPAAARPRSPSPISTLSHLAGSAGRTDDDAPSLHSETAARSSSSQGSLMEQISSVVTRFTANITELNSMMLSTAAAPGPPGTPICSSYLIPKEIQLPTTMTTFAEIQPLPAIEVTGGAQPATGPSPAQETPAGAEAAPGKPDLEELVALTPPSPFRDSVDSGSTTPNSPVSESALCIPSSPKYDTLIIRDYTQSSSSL
Method: A mGluR5 PET ligand, [^18F]FPEB, was used to assess receptor occupancy in mice. Mice were dosed orally twice a day with different doses of Compound 1. The available mGluR5 sites in brain were assessed in anesthetized mice both at peak 1 h after a single dose, and at trough after 7 days of twice daily (b.i.d.) oral dosing. The 3.75 mg/kg b.i.d. dose maintains >90% receptor occupancy throughout the dosing period. […] FPEB into the brain of mice. Displacement studies were conducted at expected trough levels and conducted at three dose levels: 0.42, 1.25 and 3.75 mg/kg. The 3.75 mg/kg dose was able to achieve >90% receptor occupancy at trough.

APP/PS1 mice = test: Immunohistochemical staining of SV2A and PSD-95 in APP/PS1 mouse model with washout; type: in vivo
Method: The objective of this study was to assess synaptic density of control and APP/PS1 mice before and after treatment with Compound 1, and to assess the reversibility of any observed effects following a drug washout period.
Vehicle (95% polyethylene glycol (PEG) 400/5% solutol) or Compound 1 at 7.5 mg/kg/day (3.75 mg/kg q12) was given to control and APP/PS1 mice for at least 28 days by oral administration. A subset of mice stopped treatment after four weeks, then underwent a four-week washout period.
Reduced synaptic density in APP/PS1 samples relative to controls was confirmed by immunohistochemical staining of pre- and post-synaptic markers (SV2A and PSD-95) in hippocampal and cortical sections.

CYP2C8 = biological target: T2, CYP2C8 (Homo sapiens, UniProt P10632); test: CYP450 reaction phenotyping in Supersomes, CYP2C8; type: in vitro ADME
T2 construct: purchased
T2 sequence (P10632 whole entry): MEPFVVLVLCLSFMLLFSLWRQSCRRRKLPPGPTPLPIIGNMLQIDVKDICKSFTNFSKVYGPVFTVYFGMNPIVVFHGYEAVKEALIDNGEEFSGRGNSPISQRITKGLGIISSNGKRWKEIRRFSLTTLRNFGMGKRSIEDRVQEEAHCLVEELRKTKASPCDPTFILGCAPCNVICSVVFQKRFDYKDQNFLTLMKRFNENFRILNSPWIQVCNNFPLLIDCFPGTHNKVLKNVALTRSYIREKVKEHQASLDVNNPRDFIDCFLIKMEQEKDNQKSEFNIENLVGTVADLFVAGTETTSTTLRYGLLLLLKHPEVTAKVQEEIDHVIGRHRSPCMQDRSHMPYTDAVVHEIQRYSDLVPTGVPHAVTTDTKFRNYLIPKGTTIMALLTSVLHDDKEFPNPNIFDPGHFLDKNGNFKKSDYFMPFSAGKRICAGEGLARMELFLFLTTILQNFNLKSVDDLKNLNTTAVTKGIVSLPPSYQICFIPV
Method: In Vitro CYP450 Reaction Phenotyping Study in Supersomes™ Over-Expressing Human CYP Enzymes
The CYPP450 enzymes involved in the Phase I metabolism of Compound 1 Form A were investigated in vitro. Compound 1 Form A was metabolized by CYP1A2, CYP2D6 and CYP3A4 and with T1/2 values of 64, 14, and 176 min, respectively, and CLint of 0.261, 0.984 and 0.0786 μL/min/pmol CYP, respectively. No evidence of Compound 1 metabolism by CYP2B6, CYP2C8, CYP2C9 and CYP2C19 was observed.

[4] = biological target: pregnane X receptor (PXR) (Rattus norvegicus, UniProt Q9R1A7); test: PXR receptor activation, rat; type: in vitro ADME; conditions: at 30 μM
pregnane X receptor (PXR), sequence (Q9R1A7 whole entry): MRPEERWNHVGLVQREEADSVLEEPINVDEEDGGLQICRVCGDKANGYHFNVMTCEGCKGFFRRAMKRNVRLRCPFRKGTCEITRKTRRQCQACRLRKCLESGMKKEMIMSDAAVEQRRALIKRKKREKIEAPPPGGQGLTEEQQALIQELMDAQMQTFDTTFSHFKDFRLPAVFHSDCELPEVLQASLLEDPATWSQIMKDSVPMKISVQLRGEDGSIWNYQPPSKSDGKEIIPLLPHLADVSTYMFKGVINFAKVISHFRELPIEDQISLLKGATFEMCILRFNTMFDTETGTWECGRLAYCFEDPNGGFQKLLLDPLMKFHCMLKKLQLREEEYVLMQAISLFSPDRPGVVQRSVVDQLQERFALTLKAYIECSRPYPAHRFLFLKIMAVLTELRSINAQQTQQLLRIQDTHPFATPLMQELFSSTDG
Description: as §1

## O=C1N[C@H](c2cncc(C#Cc3ccccc3)c2)[C@@H](c2ccccc2Cl)O1 [Compound 1, (4R,5R)-5-(2-chlorophenyl)-4-(5-(phenylethynyl)pyridin-3-yl)oxazolidin-2-one]
[1]
  clinically significant changes in consciousness (GCS), cognitive or psychiatric side effects (MOCA, GDS, NPIQ): no evidence
  intensity of TEAEs: mild or moderate
[1]; 36 participants
  deaths, SAEs, severe TEAEs: no deaths, SAEs, or severe TEAEs
  number of TEAEs considered possibly related to treatment: 8
[1]; fasted, healthy participants 50 to 80 years
  tolerability: well tolerated
[2]; Sprague Dawley, rat, plasma
  clearance: 5.98 mL/min/kg
  half-life: 4.49 h
[2]; Sprague Dawley, rat, plasma, solution in 2.5% NMP + 1% Solutol HS15 in water
  Cmax: 595 ng/mL
[2]; Sprague Dawley, rat, plasma, read-out: Vdss
  Vd: 2.23 L/kg
[2]
  AUCinf (in AUClast column, footnote 1): 2910^1 ng · h/mL
[3]
  AhR activation, % of the positive control: 1.11%
  mean maximum fold activation of AhR: 1.78 fold
mGluR5; mice, 3.75 mg/kg b.i.d.
  free drug above the Ki: 25 fold
mGluR5; mice, 3.75 mg/kg b.i.d. oral
  free trough drug level: 15 nM
mGluR5; mice, 3.75 mg/kg b.i.d. oral, read-out: receptor occupancy throughout the dosing period
  receptor occupancy at 3.75 mg/kg: > 90%
mGluR5; mice, 3.75 mg/kg dose, oral, read-out: receptor occupancy at trough
  receptor occupancy at 3.75 mg/kg: > 90%
mGluR5; oral, rodent and non-human primate
  doses occupying brain mGluR5 sites below adverse effect levels: 250 fold
APP/PS1 mice; 3.75 mg/kg q12 oral, at least 28 days
  SV2A and PSD-95 staining in hippocampal and cortical sections, relative to vehicle: significant increases
APP/PS1 mice; one month washout period
  rescue of synaptic density after washout: persists after drug washout; also recorded: preserved
CYP2C8
  metabolism by CYP2C8: No evidence
[4]
  mean activation of PXR: 4.70 fold

From patent US20250230149A1, “MGLUR5 MODULATING COMPOUNDS, COMPOSITIONS, AND METHODS OF USE” (Allyx Therapeutics, Inc., priority 2022, published 2025)
